Assay results published in patent publication US12275734B1, “Pleuromutilin onium salt derivative containing a 3H-imidazo[4,5-c]pyridine side chain, and a preparation method and application thereof” (SHAANXI UNIVERSITY OF SCIENCE AND TECHNOLOGY, priority 2024, dated 2025).
In brackets after ≈: the same amount, converted by molar mass. Like-named read-outs stand apart in the source and are kept apart here.

Key:
[1] = system: Staphylococcus aureus (MRSA, ATCC 33591); assay: Mouse MRSA systemic infection model, survival rate; type: in vivo; settings: MRSA-infected mice, 5, 10, 20 mg/kg single intraperitoneal injection 1 hour after infection, 7-day survival
Procedure: (§1) Establishment of a mouse model of MRSA systemic infection
(1) Solution preparation and bacterial activation: Reference Example 15.
(§2) (2) Pretreatment: All mice received cyclophosphamide treatment, with the first intraperitoneal injection of 150 mg/kg cyclophosphamide 4 days before infection and the second intraperitoneal injection of 100 mg/kg cyclophosphamide 1 day before infection.
(3) Control group treatment: Mice in the blank control group received intraperitoneal injection of 0.9% saline.
(4) Infection process: Mice were anesthetized with isoflurane and infected by intraperitoneal injection of Staphylococcus aureus (MRSA, ATCC 33591) at a concentration of 10^7 CFU/mL.
(1) Experimental groups: The doses of compound i and valnemulin were 5, 10, and 20 mg/kg, respectively (the solvent was dimethyl sulfoxide: Tween-80: sterile water=1:0.5:9.5);
A model control group (administered with a solvent after infection with bacteria) and a blank control group (administered with a solvent only without infection with bacteria) were set up, with 10 mice in each group, half of which were male and half were female.
(2) Time point: Intraperitoneal injection was performed in the experimental group mice at 1 hour after infection.
(3) Therapeutic dose: The mice in the experimental groups received intraperitoneal injection of 0.5 mL of compound i and valnemulin at different concentrations. […]

[2] = system: Staphylococcus aureus (MRSA, ATCC 33591); assay: Mouse MRSA systemic infection model, H&E tissue sections; type: in vivo; settings: MRSA-infected mice
Procedure: as §1, §2
(4) Infection process: Mice were anesthetized with isoflurane and infected by intraperitoneal injection of Staphylococcus aureus (MRSA, ATCC 33591) at a concentration of 10^7 CFU/mL. […]
(2) Processing: • (a) Time point: At the first hour after infection, mice in the experimental group received intraperitoneal injection of 0.5 mL of compounds of different concentrations, while mice in the control group received the same volume of solvent. • (b) Treatment time: […]
Part II: The samples were fixed with 10% formalin buffer, then embedded in paraffin and sectioned. The sections were stained with hematoxylin and eosin (H&E) and then examined under an optical microscope.

[3] = system: A549 Cells; assay: Cytotoxicity, Cell Counting Kit-8; type: cell-based
Procedure: (§3) Cell Counting Kit-8 was used to evaluate the cytotoxicity of the compounds.
(§4) (4) Cell culture: HepG2, HEK293 and A549 cells were evenly dispersed in culture medium, seeded into 96-well plates, and cultured under appropriate environmental conditions to keep the cells completely attached to the well walls.
(§5) (5) Compound treatment: Add different concentrations of compounds I-8 and I-9 to each well (the concentrations are 0.78, 1.56, 3.13, 6.25, 12.5, 25, 50 and 100 μM, respectively, and perform 6 parallel experiments). Set up a blank control group and a normal control group. After incubation for 24 hours, observe the cell condition, which observed under a microscope.
(§6) (6) CCK-8 solution treatment: Add CCK-8 solution to each well and incubate for 4 hours to allow it to react with the cells.
(§7) (7) Absorbance determination: Use a full-wavelength scanning multifunctional reader, place the 96-well plate in the instrument, oscillate to mix to make the color evenly distributed, and measure the absorbance value at 490 nm.
(§8) (8) Data analysis: Based on the measured absorbance values, the cell survival rate at different concentrations can be calculated. The median cytotoxic concentration was used to evaluate the cytotoxicity of the compound to A549, HEK293 and HepG2 cells.

[4] = system: HEK293 Cells; assay: Cytotoxicity, Cell Counting Kit-8; type: cell-based
Procedure: as §3, §4, §5, §6, §7, §8

[5] = system: HepG2 Cells; assay: Cytotoxicity, Cell Counting Kit-8; type: cell-based
Procedure: as §3, §4, §5, §6, §7, §8

[6] = system: Methicillin-resistant S. epidermidis ATCC 51625; assay: MIC, broth microdilution; type: cell-based; settings: Staphylococcus epidermidis, ATCC 51625 / MRSE, read-out: Minimum inhibitory concentration MRSE^e
Procedure: (§9) The minimum inhibitory concentration of 3H-imidazo[4,5-C]pyridine pleuromutilin onium salt derivatives against the tested pathogenic microorganisms were determined by broth microdilution method, with valnemulin and retapamulin as positive controls.
(§10) The experimental strains included resistant Gram-positive bacteria: Methicillin-resistant S. aureus ATCC 33591; Methicillin-resistant S. aureus ATCC 43300; S. aureus ATCC 29213; Methicillin-resistant S. epidermidis ATCC 51625. Resistant Gram-negative bacteria: A. baumannii ATCC 19606; S. enterica ATCC14028; E. coli ATCC 25922; E. coli CMCC 44103. 9 clinically isolated resistant strains: MRSA-171; MRSA-575; MRSA-206; MRSA-222; MRSA-596; VRE-80; MDR-PA-126; MDR-KP-893; CR-AB-882.
(§11) (1) Preparation of MHB medium: Weigh 18.0 g of MHB medium pre-made powder, add it to 1 L of distilled water, heat and boil until completely dissolved, divide it into conical bottles, sterilize it by high pressure at 121° C. for 15 minutes, and set aside.
(§12) (2) Cultivate the experimental strain to the logarithmic growth phase: Under sterile conditions, inoculate the experimental strain into fresh MHB medium and culture it in a 37° C. constant temperature and humidity incubator for 16-24 hours. Adjust the bacterial solution concentration to 1.5×10^8 CFU/mL and then dilute it 200 times for later use.
(§13) (3) Preparation of storage solution: Weigh the sample to be tested, dissolve it in 1% DMSO solution, and prepare a storage solution with a concentration of 2560 μg/mL; weigh the positive control, dissolve it in sterile distilled water, and prepare a storage solution with a concentration of 2560 μg/mL.
(§14) (4) Preparation of bacterial suspension: Under sterile conditions, the experimental strain cultured to the logarithmic growth phase was calibrated to a 0.5 McFarland unit turbidity standard using MHB medium and then diluted at a ratio of 1:200 to prepare a bacterial suspension with a concentration of 5×10^5 CFU/mL for later use.
(§15) (5) Determination of MIC by two-fold microdilution method: Take a sterile 96-well plate, add 10 μL of the test compound at a concentration of 2560 μg/mL, and perform serial dilutions by the two-fold dilution method. At the same time, set up a negative control group without drug. Then add 190 μL of diluted bacterial solution to each well, so that the final bacterial solution concentration in each well is 5×10^5 CFU/mL, and incubate in a 37° C. constant temperature and humidity chamber for 24 hours.

[7] = system: S. aureus ATCC 29213; assay: MIC, broth microdilution; type: cell-based; settings: Staphylococcus aureus, ATCC29213, read-out: Minimum inhibitory concentration S.a.^d
Procedure: as §9, §10, §11, §12, §13, §14, §15

[8] = system: A. baumannii ATCC 19606; assay: MIC, broth microdilution; type: cell-based; settings: Acinetobacter baumannii, ATCC19606, read-out: Minimum inhibitory concentration A.b.^f
Procedure: as §9, §10, §11, §12, §13, §14, §15

[9] = system: Methicillin-resistant S. aureus ATCC 33591; assay: MIC, broth microdilution; type: cell-based; settings: Staphylococcus aureus, ATCC 33591 / MRSA, read-out: Minimum inhibitory concentration MRSA^b
Procedure: as §9, §10, §11, §12, §13, §14, §15

[10] = system: E.coli CMCC 44103; assay: MIC, broth microdilution; type: cell-based; settings: Escherichia coli, CMCC44103, read-out: Minimum inhibitory concentration E.c.^i
Procedure: as §9, §10, §11, §12, §13, §14, §15

[11] = system: Methicillin-resistant S. aureus ATCC 43300; assay: MIC, broth microdilution; type: cell-based; settings: Staphylococcus aureus, ATCC 43300 / MRSA, read-out: Minimum inhibitory concentration MRSA^c
Procedure: as §9, §10, §11, §12, §13, §14, §15

[12] = system: E. coli ATCC 25922; assay: MIC, broth microdilution; type: cell-based; settings: Escherichia coli, ATCC25922, read-out: Minimum inhibitory concentration E.c.^h
Procedure: as §9, §10, §11, §12, §13, §14, §15

[13] = system: S. enterica ATCC14028; assay: MIC, broth microdilution; type: cell-based; settings: Salmonella enterica, ATCC14028, read-out: Minimum inhibitory concentration S.e.^g
Procedure: as §9, §10, §11, §12, §13, §14, §15

[14] = system: multidrug-resistant Pseudomonas aeruginosa-126; assay: MIC, clinical isolates; type: cell-based; settings: read-out: Antibacterial activity (MIC) MDR-PA^h
Procedure: as §9, §10, §11, §12, §13, §14, §15

[15] = system: methicillin-resistant Staphylococcus aureus-206; assay: MIC, clinical isolates; type: cell-based; settings: MRSA, read-out: Antibacterial activity (MIC) MRSA^d
Procedure: as §9, §10, §11, §12, §13, §14, §15

[16] = system: methicillin-resistant Staphylococcus aureus-596; assay: MIC, clinical isolates; type: cell-based; settings: MRSA, read-out: Antibacterial activity (MIC) MRSA^f
Procedure: as §9, §10, §11, §12, §13, §14, §15

[17] = system: methicillin-resistant Staphylococcus aureus-171; assay: MIC, clinical isolates; type: cell-based; settings: MRSA, read-out: Antibacterial activity (MIC) MRSA^b
Procedure: as §9, §10, §11, §12, §13, §14, §15

[18] = system: multidrug-resistant Klebsiella pneumoniae-893; assay: MIC, clinical isolates; type: cell-based; settings: clinical isolate MDR-KP-893
Procedure: as §9, §10, §11, §12, §13, §14, §15

[19] = system: methicillin-resistant Staphylococcus aureus-222; assay: MIC, clinical isolates; type: cell-based; settings: MRSA / MRSE, read-out: Antibacterial activity (MIC) MRSE^e
Procedure: as §9, §10, §11, §12, §13, §14, §15

[20] = system: carbapenem-resistant Acinetobacter baumannii-882; assay: MIC, clinical isolates; type: cell-based; settings: read-out: Antibacterial activity (MIC) CR-AB^j
Procedure: as §9, §10, §11, §12, §13, §14, §15

[21] = system: methicillin-resistant Staphylococcus aureus-575; assay: MIC, clinical isolates; type: cell-based; settings: MRSA, read-out: Antibacterial activity (MIC) MRSA^c
Procedure: as §9, §10, §11, §12, §13, §14, §15

[22] = system: vancomycin-resistant Enterococcus-80; assay: MIC, clinical isolates; type: cell-based; settings: VRE, read-out: Antibacterial activity (MIC) VRE^g
Procedure: as §9, §10, §11, §12, §13, §14, §15

[23] = 5 mg/kg compound i, intraperitoneal

C=C[C@]1(C)C[C@@H](OC(=O)CSC(C)(C)CNC(=O)[C@H](N)C(C)C)[C@]2(C)[C@H](C)CC[C@]3(CCC(=O)[C@H]32)[C@@H](C)[C@@H]1O [Valnemulin, reference compound]
survival rate of mice [1]: improved
kidney H&E histology [2, 23]: inflammatory cell infiltration was still observed
liver H&E histology [2, 23]: still had inflammatory cell infiltration
lung H&E histology [2, 23]: alleviated, but they still did not return to normal
spleen H&E histology ([2]; 5 mg/kg, after 7 days of treatment): immune response was weakened
CC50 ([3]; human, 24 h): 53.7 µM
CC50 ([4]; human, 24 h): 65.4 µM
CC50 ([5]; human, 24 h): 77.3 µM
MIC [6]: 64 µg/mL (≈ 113 µM)
MIC [7]: 4 µg/mL (≈ 7.08 µM)
MIC [8]: 2 µg/mL (≈ 3.54 µM)
MIC [9]: 64 µg/mL (≈ 113 µM)
MIC [10]: 64 µg/mL (≈ 113 µM)
MIC [11]: 8 µg/mL (≈ 14.2 µM)
MIC [12]: 16 µg/mL (≈ 28.3 µM)
MIC [13]: 64 µg/mL (≈ 113 µM)

C=C[C@]1(C)C[C@@H](OC(=O)CSc2nc3cc[n+](Cc4ccc(C#N)cc4)cc3[nH]2)[C@]2(C)[C@H](C)CC[C@]3(CCC(=O)[C@H]32)[C@@H](C)[C@@H]1O [Compound h, 5-(4-cyanobenzyl)-2-((2-(((3aR,4R,5R,7S,8S,9R,9aS,12R)-8-hydroxy-4,7,9,12-tetramethyl-3-oxo-7-vinyldecahydro-4,9a-propancyclopenta[8]cyclo-5-yl)oxy)-2-oxoethyl)thio)-3H-imidazo[4,5-C]pyridine-5-ium]
MIC [14]: 32 µg/mL
MIC [15]: 4 µg/mL
MIC [16]: 8 µg/mL
MIC [17]: 16 µg/mL
Antibacterial activity (MIC) MDR-KP^i [18]: 16 µg/mL
MIC [19]: 16 µg/mL
MIC [20]: 64 µg/mL
MIC [21]: 32 µg/mL
MIC [22]: 2 µg/mL
CC50 ([3]; CCK-8, 24 hours incubation, read-out: CC50 A549 Cells): > 100 µM
CC50 ([4]; CCK-8, 24 hours incubation, read-out: CC50 HEK293 Cells): > 100 µM
CC50 ([5]; CCK-8, 24 hours incubation, read-out: CC50 HepG2 Cells): 96.3 µM
MIC [6]: 0.25 µg/mL
MIC [7]: 0.5 µg/mL
MIC [8]: 1 µg/mL
MIC [9]: 2 µg/mL
MIC [10]: 2 µg/mL
MIC [11]: 0.5 µg/mL
MIC [12]: 0.5 µg/mL
MIC [13]: 2 µg/mL
